According to ChEMBL document CHEMBL3243921, “2-Pyrrolidinylideneureas, a new class of central nervous system agents” (J Med Chem, 1978):
Calls of active or inactive are those of the source.

Columns and labels:
Mus musculus [1] = experiment: Hypnotic activity in mouse assessed as increase in pentylenetetrazol-induced persistent-convulsive threshold up to 200 mg/kg, po; type: functional, organism-based; design: dose 200 mg/kg
[2] = Therapeutic index, ratio of PD50 for acute toxicity in po dosed mouse assessed as concentration required to produce 50% loss of righting reflex to MED25 for muscle relaxant activity in po dosed mouse assessed as increase in strychnine-induced persistant convulsive threshold; type: organism-based; details: in vivo, read-out: TI
Mus musculus [3] = experiment: Potency index, ratio of methocarbamol MED20 to compound MED20 for muscle relaxant activity in po dosed mouse assessed as blockade of pentylenetetrazol-induced tonic extensor seizure; type: functional
Mus musculus [4] = experiment: Potency index, ratio of chlorzoxazone MED20 to compound MED20 for anticonvulsant activity in po dosed mouse assessed as blockade of supramaximal electroshock-induced […] seizure; type: functional
[5] = Ratio of LD50 for po dosed mouse to PD50 for acute toxicity in po dosed mouse assessed as concentration required to produce 50% loss of righting reflex; type: organism-based; details: in vivo
Mus musculus [6] = experiment: Acute toxicity in po dosed mouse assessed as concentration required to produce 50% loss of righting reflex administered as qd for 4 days measured for 1 min post last dose; type: organism-based; details: in vivo
[7] = Acute toxicity in po dosed mouse assessed as mortality administered as qd for 6 days measured on day 7 post last dose; type: organism-based; details: in vivo
Mus musculus [8] = experiment: Blockade of pentylenetetrazol-induced lethality in mouse assessed as delay in occurrence of death time up to 200 mg/kg, po; type: functional
Mus musculus [9] = experiment: Potency index, ratio of chlorzoxazone MED20 to compound MED20 for muscle relaxant activity in po dosed mouse assessed as blockade of pentylenetetrazol-induced tonic extensor seizure; type: functional
Mus musculus [10] = experiment: Sedative activity in mouse assessed as increase in pentylenetetrazol-induced pseudo-convulsive threshold up to 200 mg/kg, po; type: functional, organism-based; design: dose 200 mg/kg
Mus musculus [11] = experiment: Potency index, ratio of methocarbamol MED20 to compound MED20 for anticonvulsant activity in po dosed mouse assessed as blockade of supramaximal electroshock-induced […] seizure; type: functional
Rattus norvegicus [12] = experiment: Antianxiety activity in ip dosed rat assessed as effect on increase in punished responses administered qd for 5 days measured every day for 5 days; type: functional; details: 120 h, read-out: MED
Mus musculus [13] = experiment: Anticonvulsant activity in po dosed mouse assessed as blockade of supramaximal electroshock-induced […] seizure; type: functional
Mus musculus [14] = experiment: Muscle relaxant activity in po dosed mouse assessed as blockade of pentylenetetrazol-induced tonic extensor seizure; type: functional
Mus musculus [15] = experiment: Muscle relaxant activity in po dosed mouse assessed as increase in strychnine-induced persistant convulsive threshold; type: functional
Mus musculus [16] = experiment: Hypotic activity in mouse assessed as increase in pentylenetetrazol-induced persistant-convulsive threshold at 200 mg/kg, po relative to control; type: functional, organism-based; design: dose 200 mg/kg
Mus musculus [17] = experiment: Sedative activity in mouse assessed as increase in pentylenetetrazol-induced pseudo-convulsive threshold at 100 mg/kg, po; type: functional, organism-based; design: dose 100 mg/kg
Mus musculus [18] = experiment: Sedative activity in mouse assessed as increase in pentylenetetrazol-induced pseudo-convulsive threshold at 25 to 200 mg/kg, po; type: functional, organism-based
Mus musculus [19] = experiment: Sedative activity in mouse assessed as increase in pentylenetetrazol-induced pseudo-convulsive threshold at 200 mg/kg, po relative to control; type: functional
[20] = Therapeutic index, ratio of PD50 for acute toxicity in po dosed mouse assessed as concentration required to produce 50% loss of righting reflex to MED causing antianxiety activity in ip dosed rat assessed as effect on increase in punished responses; type: organism-based; details: in vivo, other: oral (PD50, mouse) and intraperitoneal (MED, rat), read-out: TI
Rattus norvegicus [21] = experiment: Antianxiety activity in rat assessed as effect on increase in punished responses at 25 mg/kg, ip qd administered for 5 days measured every day for 5 days; type: functional, organism-based; design: dose 25 mg/kg
[22] = Therapeutic index, ratio of PD50 for acute toxicity in po dosed mouse assessed as concentration required to produce 50% loss of righting reflex to MED20 for anticonvulsant activity in po dosed mouse assessed as blockade of supramaximal electroshock-induced […] seizure; type: organism-based; details: in vivo, read-out: TI
[23] = Therapeutic index, ratio of PD50 for acute toxicity in po dosed mouse assessed as concentration required to produce 50% loss of righting reflex to MED20 for muscle relaxant activity in po dosed mouse assessed as blockade of pentylenetetrazol-induced tonic extensor seizure; type: organism-based; details: in vivo, read-out: TI
Mus musculus [24] = experiment: Sedative-hypnotic activity in mouse assessed as increase in pentylenetetrazol-induced pseudo/persistent-convulsive threshold at 50 to 200 mg/kg, po; type: functional, organism-based
Mus musculus [25] = experiment: Sedative-hypnotic activity in po dosed mouse assessed as increase in pentylenetetrazol-induced persistent-convulsive threshold; type: functional, organism-based
Mus musculus [26] = experiment: Sedative activity in mouse assessed as increase in pentylenetetrazol-induced pseudo-convulsive threshold at 25 mg/kg, po relative to control; type: functional
Mus musculus [27] = experiment: Sedative activity in mouse assessed as increase in pentylenetetrazol-induced pseudo-convulsive threshold at 50 mg/kg, po relative to control; type: functional
Mus musculus [28] = experiment: Hypnotic activity in mouse assessed as increase in pentylenetetrazol-induced persistent-convulsive threshold at 50 mg/kg, po relative to control; type: functional
Mus musculus [29] = experiment: Sedative-hypnotic activity in mouse assessed as increase in pentylenetetrazol-induced pseudo/persistent-convulsive threshold at 1 to 5 mg/kg, po; type: functional, organism-based
Mus musculus [30] = experiment: Muscle relaxant activity in mouse assessed as blockade of pentylenetetrazol-induced tonic extensor seizure at 40 mg/kg, po; type: functional, organism-based; design: dose 40 mg/kg
Mus musculus [31] = experiment: Blockade of pentylenetetrazol-induced lethality in mouse at 40 mg/kg, po; type: functional, organism-based; design: dose 40 mg/kg

| SMILES | selectivity ratio [5] | PD50 (Mus musculus [6]) [mg/kg] | LD50 at 144 h [7] [mg/kg] | minimal effective dose (Rattus norvegicus [12]) [mg/kg] | MED20 (Mus musculus [13]) [mg/kg] | MED20 (Mus musculus [14]) [mg/kg] | MED25 (Mus musculus [15]) [mg/kg] | selectivity ratio [20] | further results |
| --- | --- | --- | --- | --- | --- | --- | --- | --- | --- |
| Cc1cccc(Cl)c1NC(=O)/N=C1\CCCN1C | 1.9 | 232 | 449 | > 25 | 43 | 28 | 52 | – | Activity (Mus musculus [1]): inactive; selectivity ratio [2]: 4.5; Ratio (Mus musculus [3]): 4; Ratio (Mus musculus [4]): 3; Time (Mus musculus [8]): 1 min; Ratio (Mus musculus [9]): 4; Activity (Mus musculus [10]): inactive; Ratio (Mus musculus [11]): 3 |
| CN1CCC/C1=N\C(=O)Nc1cccc(Cl)c1 | 1.6 | 950 | 1500 | 15 | 142 | 32 | 50 | 63 | Activity (Mus musculus [16]): inactive; Activity (Mus musculus [17]): inactive; Activity (Mus musculus [18]): Active; Activity (Mus musculus [19]): 50% |
| CCCCCCCCCCCCNC(=O)/N=C1\CCCN1 | – | – | – | – | – | – | – | – | Activity (Rattus norvegicus [21]): Active |
| CCc1cccc(C)c1NC(=O)/N=C1\CCCN1C | – | – | 650 | – | 36 | 20 | 96 | – | Activity (Mus musculus [1]): inactive; Ratio (Mus musculus [3]): 4; Ratio (Mus musculus [4]): 3; Time (Mus musculus [8]): 1 min; Ratio (Mus musculus [9]): 4; Activity (Mus musculus [10]): inactive; Ratio (Mus musculus [11]): 3 |
| COc1ccccc1OCC(O)COC(N)=O (configuration not stated) [METHOCARBAMOL] | 1.9 | 1050 | 2000 | > 25 | 120 | 150 | 310 | – | selectivity ratio [2]: 3.4; selectivity ratio [22]: 8.7; selectivity ratio [23]: 7 |
| CCN1CCC/C1=N\C(=O)Nc1cccc(Cl)c1 | 1.2 | 1307 | 1700 | 15 | 200 | 60 | 137 | 58 | Activity (Mus musculus [24]): Active; Activity (Mus musculus [25]): Active |
| CN1CCC/C1=N\C(=O)Nc1ccc([N+](=O)[O-])cc1 | 1 | 1200 | 1310 | 15 | >200 | 100 | >200 | 80 | Activity (Mus musculus [26]): 25%; Activity (Mus musculus [27]): 73%; Activity (Mus musculus [24]): Active; Activity (Mus musculus [18]): Active; Activity (Mus musculus [28]): 45% |
| CN1C(=O)CN=C(c2ccccc2)c2cc(Cl)ccc21 [DIAZEPAM] | – | – | – | 0.5 | 15 | 0.1 | 0.17 | – | Activity (Mus musculus [29]): Active |
| CNC1=Nc2ccc(Cl)cc2C(c2ccccc2)=[N+]([O-])C1 [CHLORDIAZEPOXIDE] | 1.5 | 680 | 990 | 2.5 | 71 | 1.5 | 10 | 260 | Activity (Mus musculus [30]): Active; Activity (Mus musculus [31]): Active |
